Reference: patent US20100204131A1, “USE OF A PEPTIDE AS A THERAPEUTIC AGENT” (priority 2007, published 2010)
No end group written: not given here.

Columns and labels:
[1] = system: HIV-1IIIB; experiment: HIV-1 antiviral assay in CEM-SS cells; conditions: CEM-SS cells infected with HIV-1IIIB
[2] = system: HCMV strain AD169; experiment: HCMV plaque formation assay in MRC-5 cells; conditions: for inhibition of HCMV plaque formation as compared to the virus control: 10 micrograms per ml, MRC-5 cells, 7-10 days
[3] = system: Primary Human endothelial cells (HUVEC); experiment: Endothelial cell migration assay; conditions: 10 micrograms per ml, 22 hours, transwell
Experimental: Primary Human endothelial cells (HUVEC) were seeded in insert chambers with 3 micrometer pore size of multi-transwell plate for 6 hours at 37° C. in Endothelial Cell Basal Medium (EBM) supplemented with 0.1% bovine serum albumin. Thereafter, designated concentration of testing peptides -10 micrograms per ml—was added in duplicate wells. The endothelia were allowed to migrate for 22 hours at 37° C., then, migrated cells were fixed and stained with Hoechst 33342 dye. Images of 3 fields per insert were taken and the number of migrated cells per field were quantified using the ImageProPlus software. Data were analyzed for the average number of the migrated cells and standard deviation of six data points for each treatment condition. […] Statistic p values were computed using the Student's t-test.

[4] = system: IL-4 spleen cells; experiment: Th1/Th2 cytokine profiling assay: IL-4; conditions: 10 micrograms per ml; spleen cells of Ovalbumin-immunized Balb/c mice restimulated with Ovalbumin 10 micrograms/ml; 72 hours; supernatant
Excerpt: (§1) The Balb/c mice (originated in 1923, it is a popular strain and is used in many different research disciplines. Also classified as an inbred from the production of 20 or more successive brother-sister matings, the Balb/c mouse is albino and small in size) were immunized on Days 1, 15, and 29 with Ovalbumin (Ovalbumin is the main protein found in egg white, commonly used to stimulate an immunological reaction in test animals) in PBS (5 micrograms/injection). On day 50, spleens of the mice were harvested (3 weeks after last boost with Ovalbumin). […] Thereafter, additional Ovalbumin was added to the cells at 10 micrograms/ml for in vitro restimulation of the cells. 72 hours later, cell supernatants were harvested and assayed using the Becton Dickinson Mouse Th1/Th2 Cytokine CBA Kit.

[5] = system: IFNγ spleen cells; experiment: Th1/Th2 cytokine profiling assay: IFNγ; conditions: 10 micrograms per ml; spleen cells of Ovalbumin-immunized Balb/c mice restimulated with Ovalbumin 10 micrograms/ml; 72 hours; supernatant
Excerpt: (§2) The Balb/c mice (originated in 1923, it is a popular strain and is used in many different research disciplines. Also classified as an inbred from the production of 20 or more successive brother-sister matings, the Balb/c mouse is albino and small in size) were immunized on Days 1, 15, and 29 with Ovalbumin (Ovalbumin is the main protein found in egg white, commonly used to stimulate an immunological reaction in test animals) in PBS (5 micrograms/injection). On day 50, spleens of the mice were harvested (3 weeks after last boost with Ovalbumin). […] Thereafter, additional Ovalbumin was added to the cells at 10 micrograms/ml for in vitro restimulation of the cells. 72 hours later, cell supernatants were harvested and assayed using the Becton Dickinson Mouse Th1/Th2 Cytokine CBA Kit. This kit can be used to measure Interleukin-2 (IL-2), Interleukin-4 (IL-4), Interleukin-5 (IL-5), Interferon-γ (IFN-γ), and Tumor Necrosis Factor-α (TNF-α) protein levels in a single sample.

[6] = system: IL-2 spleen cells; experiment: Th1/Th2 cytokine profiling assay: IL-2; conditions: 10 micrograms per ml; spleen cells of Ovalbumin-immunized Balb/c mice restimulated with Ovalbumin 10 micrograms/ml; 72 hours; supernatant
Excerpt: as §1

[7] = system: HUVEC; experiment: Endothelial tube formation assay; conditions: 10 micrograms per ml, 20 hours, average tubule length
Experimental: The endothelial tube formation assay is based on the ability of endothelial cells to form three-dimensional capillary-like tubular structures when cultured on a gel of basement membrane extract. […] Pre-labeled HUVEC with Calcein AM were seeded in a 96-well culture plate coated with extracellular metrix (Chemicon international Cat. ECM625) and treated with test peptides—10 micrograms per ml—in full growth medium. Positive control was vehicle only. The endothelial cells were allowed to form tubes foe 20 hours and were then examined under an inverted fluorescent microscope. Duplicate wells for each treatment were photographed and quantitatevily analyzed for an average tubule length using image analysis software ImageProPlus. Raw data were expressed as average tubule lengths in pixels ±standard deviation. Statistic p values were computed using the Student's t-test.

[8] = system: IL-5 spleen cells; experiment: Th1/Th2 cytokine profiling assay: IL-5; conditions: 10 micrograms per ml; spleen cells of Ovalbumin-immunized Balb/c mice restimulated with Ovalbumin 10 micrograms/ml; 72 hours; supernatant
Excerpt: as §1

[9] = system: TNF-a spleen cells; experiment: Th1/Th2 cytokine profiling assay: TNF-a; conditions: 10 micrograms per ml; spleen cells of Ovalbumin-immunized Balb/c mice restimulated with Ovalbumin 10 micrograms/ml; 72 hours; supernatant
Excerpt: as §2

[10] = system: hepatitis B virus (HBV) ayw strain; experiment: HBV experimental assay system (HepG2-2.2.15, TaqMan PCR); type: cell-based; conditions: 10 micrograms per ml; HepG2-2.2.15 cells; six days; HBV DNA by TaqMan PCR
Excerpt: HepG2-2.2.15 is a stable cell line containing the hepatitis B virus (HBV) ayw strain genome (ATCC Cat. No. CRL-11997). Antiviral compounds blocking any late step of viral replication such as transcription, translation, pregenome encapsidation, reverse transcription, particle assembly and release can be identified and characterized using this cell line. In this assay, an active compound will reduce the production of secreted HBV from cells, measured by utilizing real time quantitative PCR (TaqMan) assay to directly and accurately measure HBV DNA copies.
HepG2-2.2.15 cells were plated in 96-well microtiter plates. After 16-24 hours the confluent monolayer of HepG2-2.2.15 cells was washed and the medium was replaced with complete medium containing test peptides—10 micrograms per ml—in duplicate. […] Six days following the initial administration of the peptides, the cell culture supernatants was collected, treated with pronase and DNAse and then used in a real-time quantitative TaqMan PCR assay. The PCR-amplified HBV DNA was detected in real-time by monitoring increases in fluorescence signals that result from the exonucleolytic degradation of a quenched fluorescence probe molecule that hybridizes to the amplified HBV DNA. […] Antiviral activity was calculated from the reduction in HBV DNA levels (% virus control). […]

| Compound | antiviral activity of positive control compounds [1] | antiviral activity of positive control compound ([2]; positive control, HCMV in MRC-5 cells) | inhibition of the migration of human endothelial cells [3] | IL-4 spleen cells; TH2 response (% of control) [4] | IFNγ spleen cells; TH1 response (% of control) [5] | inhibition of HCMV plaque formation as compared to the virus control [2] | IL-2 spleen cells (% of control) [6] | inhibition of the tube formation of endothelial cells [7] [%] | IL-5 spleen cells; TH2 response (% of control) [8] | TNF-a spleen cells; TH1 response (% of control) [9] | inhibition of HBV replication on tested liver cells [10] |
| --- | --- | --- | --- | --- | --- | --- | --- | --- | --- | --- | --- |
| Cc1cn([C@H]2C[C@H](N=[N+]=[N-])[C@@H](CO)O2)c(=O)[nH]c1=O [AZT] | expected levels of antiviral activity |  |  |  |  |  |  |  |  |  |  |
| Nc1nc(O)c2ncn(COC(CO)CO)c2n1 [Ganciclovir, reference compound] |  | expected levels of antiviral activity |  |  |  |  |  |  |  |  |  |
| CC(C)(C)NC(=O)[C@@H]1CN(Cc2cccnc2)CCN1C[C@@H](O)C[C@@H](Cc1ccccc1)C(=O)N[C@H]1c2ccccc2C[C@H]1O [indinavir] | expected levels of antiviral activity |  |  |  |  |  |  |  |  |  |  |
| Ala-Ser-Gln-Phe-Glu-Thr-Ser-OH (ASQFETS-OH) [peptide 2] |  |  | 28% | 0.0 % of control | 94.7 % of control | did not inhibit | 72.5 % of control | 27 | 57.6 % of control | 110.7 % of control | no effect |
| Ser-Tyr-Ser-Met-Glu-His-Phe-Arg-Trp-Gly-Lys-Pro-Val-Gly-Lys-Lys-Arg-Arg-Pro-Val-Lys-Val-Tyr-Pro-OH (SYSMEHFRWGKPVGKKRRPVKVYP-OH) [peptide 1] |  |  | did not inhibit | 132.1 % of control | 103.7 % of control | did not inhibit | 149.2 % of control | 25 | 82.6 % of control | 97.0 % of control | no effect |
